# Earlier results in patent US20080312310A1, “Compounds, Compositions and Methods” (Cytokinetics, Inc., priority 2002, published 2008).
# Test system: A549 cells
# Settings: data provided by National Cancer Institute, Developmental Therapeutic Program
row,SMILES,GI50 [nM]
1,O=c1[nH]cc(F)c(=O)[nH]1 [5-fluorouracil],1000
2,COc1cccc2c1C(=O)c1c(O)c3c(c(O)c1C2=O)C[C@@](O)(C(=O)CO)C[C@@H]3O[C@H]1C[C@H](N)[C@H](O)[C@H](C)O1 [doxorubicin],63
3,NC(=O)NO [hydroxyurea],500000
4,CC(=O)O[C@H]1C(=O)[C@@]2(C)[C@H]([C@H](OC(=O)c3ccccc3)[C@]3(O)C[C@H](OC(=O)[C@H](O)[C@@H](NC(=O)c4ccccc4)c4ccccc4)C(C)=C1C3(C)C)[C@]1(OC(C)=O)CO[C@@H]1C[C@@H]2O [paclitaxel],4
